# Results taken from patent US8796308B2, “Modulators of cystic fibrosis transmembrane conductance regulator” (Vertex Pharmaceuticals Incorporated, priority 2009, dated 2014).
# How the values were obtained:
# [1] = High throughput shake flask (HTSF) solubility at pH 7.4; type: physicochemical; details: aqueous buffer, kinetic from dmso stock; pH 7.4 phosphate buffer with 2% DMSO, shaken overnight
# Protocol: A high throughput shake flask assay was used to determine solubility of compounds in pH 7.4 buffer. To calculate the concentration of compounds in solution, two conditions per compound were run: 300 uM in 100% DMSO and 200 uM in pH 7.4 phosphate buffer with 2% DMSO present. Each sample was left to shake overnight then injected onto HPLC-UV to determine peak area using the following conditions: Phenomenex 00A-4251-B0-30×2.00 mm Luna 3u C18(2) 100A column; 0.8 mL/min flow rate; 20 uL injection volume; HPLC grade water with 0.1% formic acid and HPLC grade acetonitrile with 0.1% formic acid mobile phases; peak area determined at 254 nm. Solubility in uM was calculated using the following equation: conc.=(peak area pH 7.4)/(peak area 300 uM DMSO standard condition)*300 uM concentration of standard condition. Peaks of interest were identified in buffer conditions based on retention time (RT) of the largest area peak in the 300 uM DMSO standard condition.
# CaV 1.2 = CaV 1.2 (Homo sapiens, UniProt Q13936); assay: CaV 1.2 inhibition
# Δ508/G551D-HBE = Δ508/G551D-HBE (Homo sapiens, UniProt P13569, G551D); assay: Ussing chamber assay, Δ508/G551D-HBE; type: cell-based
# Δ508/G551D-HBE, sequence (P13569 whole entry G551D, stated change not applied): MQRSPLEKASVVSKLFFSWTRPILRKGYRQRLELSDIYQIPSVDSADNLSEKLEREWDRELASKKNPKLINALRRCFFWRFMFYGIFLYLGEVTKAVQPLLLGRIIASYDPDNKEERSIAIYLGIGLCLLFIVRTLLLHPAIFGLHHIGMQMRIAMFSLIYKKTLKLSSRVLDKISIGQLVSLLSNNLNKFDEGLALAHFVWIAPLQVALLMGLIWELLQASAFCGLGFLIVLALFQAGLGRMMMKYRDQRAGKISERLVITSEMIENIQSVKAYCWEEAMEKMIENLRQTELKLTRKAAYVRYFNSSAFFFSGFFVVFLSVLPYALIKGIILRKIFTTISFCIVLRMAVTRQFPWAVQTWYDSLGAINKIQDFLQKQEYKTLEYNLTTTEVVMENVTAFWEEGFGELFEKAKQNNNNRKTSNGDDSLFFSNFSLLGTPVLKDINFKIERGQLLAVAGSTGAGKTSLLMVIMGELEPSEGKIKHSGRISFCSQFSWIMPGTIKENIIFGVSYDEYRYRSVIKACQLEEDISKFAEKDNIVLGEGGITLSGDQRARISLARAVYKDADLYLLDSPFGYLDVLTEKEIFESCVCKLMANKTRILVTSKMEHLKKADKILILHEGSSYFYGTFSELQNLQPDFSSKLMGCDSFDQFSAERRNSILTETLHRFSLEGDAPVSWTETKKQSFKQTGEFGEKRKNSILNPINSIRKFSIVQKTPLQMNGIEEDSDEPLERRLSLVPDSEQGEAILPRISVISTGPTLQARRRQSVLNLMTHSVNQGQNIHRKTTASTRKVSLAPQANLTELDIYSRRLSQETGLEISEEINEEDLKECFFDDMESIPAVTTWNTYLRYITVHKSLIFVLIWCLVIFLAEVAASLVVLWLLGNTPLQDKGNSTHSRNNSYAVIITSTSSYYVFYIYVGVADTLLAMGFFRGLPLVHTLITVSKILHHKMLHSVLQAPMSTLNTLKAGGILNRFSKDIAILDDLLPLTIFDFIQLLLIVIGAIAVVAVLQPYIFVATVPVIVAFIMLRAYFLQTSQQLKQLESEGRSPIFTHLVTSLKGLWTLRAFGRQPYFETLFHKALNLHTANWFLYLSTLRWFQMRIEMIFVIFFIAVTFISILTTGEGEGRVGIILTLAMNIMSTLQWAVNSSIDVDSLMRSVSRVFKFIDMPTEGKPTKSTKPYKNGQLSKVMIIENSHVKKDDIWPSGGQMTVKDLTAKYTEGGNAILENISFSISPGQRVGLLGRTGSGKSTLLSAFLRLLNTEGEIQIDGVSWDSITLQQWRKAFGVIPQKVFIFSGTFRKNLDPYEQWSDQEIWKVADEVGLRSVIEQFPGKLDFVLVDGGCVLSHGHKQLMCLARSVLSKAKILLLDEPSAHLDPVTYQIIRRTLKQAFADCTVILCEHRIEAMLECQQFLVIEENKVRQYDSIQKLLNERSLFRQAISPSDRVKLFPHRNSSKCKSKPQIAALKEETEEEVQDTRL
# Δ508/G551D-HBE, sequence (P13569 whole entry G551D, stated change not applied): as above
# [2] = target: T1, ΔF508-CFTR in NIH 3T3 cells (Homo sapiens, UniProt P13569, DEL508-508); assay: Membrane potential optical potentiator assay (FLIPR III); type: cell-based; details: temperature-corrected ΔF508 CFTR NIH 3T3 cells, forskolin
# T1 construct: expressed in transfected cells
# T1 sequence (P13569 with tags, fused parts or gaps DEL508-508): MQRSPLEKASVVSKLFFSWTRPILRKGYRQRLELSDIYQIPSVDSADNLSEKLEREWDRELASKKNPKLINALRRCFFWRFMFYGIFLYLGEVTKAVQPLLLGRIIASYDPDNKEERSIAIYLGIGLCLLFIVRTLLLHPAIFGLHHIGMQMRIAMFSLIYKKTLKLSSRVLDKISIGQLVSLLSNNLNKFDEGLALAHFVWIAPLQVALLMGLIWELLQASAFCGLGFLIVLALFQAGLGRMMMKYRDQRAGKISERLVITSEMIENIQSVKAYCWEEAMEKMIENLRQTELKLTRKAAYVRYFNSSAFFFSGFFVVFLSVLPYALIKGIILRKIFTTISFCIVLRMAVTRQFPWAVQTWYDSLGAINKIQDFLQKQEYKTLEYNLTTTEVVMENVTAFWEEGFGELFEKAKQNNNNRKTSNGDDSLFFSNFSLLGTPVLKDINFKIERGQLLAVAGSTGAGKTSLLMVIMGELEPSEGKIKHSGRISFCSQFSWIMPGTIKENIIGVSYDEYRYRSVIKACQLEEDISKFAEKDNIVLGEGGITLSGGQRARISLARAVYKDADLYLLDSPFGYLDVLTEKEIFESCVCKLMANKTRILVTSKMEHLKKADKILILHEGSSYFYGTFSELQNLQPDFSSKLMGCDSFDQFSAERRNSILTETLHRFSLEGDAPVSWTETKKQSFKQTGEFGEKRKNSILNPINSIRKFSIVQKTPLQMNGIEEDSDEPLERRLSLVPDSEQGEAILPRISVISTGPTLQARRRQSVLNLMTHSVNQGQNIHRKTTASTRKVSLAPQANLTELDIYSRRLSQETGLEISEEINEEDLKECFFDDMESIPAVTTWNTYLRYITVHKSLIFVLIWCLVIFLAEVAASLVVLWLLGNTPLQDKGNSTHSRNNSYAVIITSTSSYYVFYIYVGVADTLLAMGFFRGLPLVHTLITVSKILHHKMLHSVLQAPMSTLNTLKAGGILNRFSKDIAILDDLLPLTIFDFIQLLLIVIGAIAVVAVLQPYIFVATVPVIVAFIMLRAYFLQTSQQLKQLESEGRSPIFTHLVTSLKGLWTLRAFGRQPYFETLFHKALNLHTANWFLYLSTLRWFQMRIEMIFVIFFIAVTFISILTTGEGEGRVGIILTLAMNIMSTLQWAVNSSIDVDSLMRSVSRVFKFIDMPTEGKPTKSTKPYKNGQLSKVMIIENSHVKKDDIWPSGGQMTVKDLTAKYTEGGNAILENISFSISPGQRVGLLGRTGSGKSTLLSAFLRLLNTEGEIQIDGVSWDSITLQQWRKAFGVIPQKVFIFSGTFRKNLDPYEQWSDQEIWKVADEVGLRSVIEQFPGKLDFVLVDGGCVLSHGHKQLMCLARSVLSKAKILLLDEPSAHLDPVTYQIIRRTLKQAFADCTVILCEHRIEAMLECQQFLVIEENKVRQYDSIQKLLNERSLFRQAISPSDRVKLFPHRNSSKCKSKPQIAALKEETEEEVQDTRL
# Text: The assay utilizes fluorescent voltage sensing dyes to measure changes in membrane potential using a fluorescent plate reader (e.g., FLIPR III, Molecular Devices, Inc.) as a readout for increase in functional ΔF508-CFTR in NIH 3T3 cells. The driving force for the response is the creation of a chloride ion gradient in conjunction with channel activation by a single liquid addition step after the cells have previously been treated with compounds and subsequently loaded with a voltage sensing dye.
# To identify potentiators of ΔF508-CFTR, a double-addition HTS assay format was developed. This HTS assay utilizes fluorescent voltage sensing dyes to measure changes in membrane potential on the FLIPR III as a measurement for increase in gating (conductance) of ΔF508 CFTR in temperature-corrected ΔF508 CFTR NIH 3T3 cells. The driving force for the response is a Cl^− ion gradient in conjunction with channel activation with forskolin in a single liquid addition step using a fluorescent plate reader such as FLIPR III after the cells have previously been treated with potentiator compounds (or DMSO vehicle control) and subsequently loaded with a redistribution dye.
# Solutions • Bath Solution #1: (in mM) NaCl 160, KCl 4.5, CaCl2 2, MgCl2 1, HEPES 10, pH 7.4 with NaOH. • Chloride-free bath solution: Chloride salts in Bath Solution #1 are substituted with gluconate salts. […]
# ΔF508-CFTR in HBE = target: T2, ΔF508-CFTR in HBE (Homo sapiens, UniProt P13569, DEL508-508); assay: Ussing chamber assay, Δ508-HBE; type: cell-based; details: HBE from patients homozygous for ΔF508-CFTR
# T2 construct: CF-HBE were isolated from patients homozygous for ΔF508-CFTR; endogenous in cells; host or cells: primary bronchial epithelial cells (HBE) from CF patients homozygous for ΔF508
# T2 sequence (P13569 with tags, fused parts or gaps DEL508-508): as above
# Protocol: Ussing chamber experiments were performed on polarized airway epithelial cells expressing ΔF508-CFTR to further characterize the ΔF508-CFTR modulators identified in the optical assays. Non-CF and CF airway epithelia were isolated from bronchial tissue, cultured as previously described (Galietta, L. J. V., Lantero, S., Gazzolo, A., Sacco, O., Romano, L., Rossi, G. A., & Zegarra-Moran, O. (1998) In Vitro Cell. Dev. Biol. 34, 478-481), and plated onto Costar® Snapwell™ filters that were pre-coated with NIH3T3-conditioned media. After four days the apical media was removed and the cells were grown at an air liquid interface for >14 days prior to use. […] CF-HBE were isolated from patients homozygous for ΔF508-CFTR.
# HBE grown on Costar® Snapwell™ cell culture inserts were mounted in an Ussing chamber (Physiologic Instruments, Inc., San Diego, Calif.), and the transepithelial resistance and short-circuit current in the presence of a basolateral to apical Cl^− gradient (ISC) were measured using a voltage-clamp system (Department of Bioengineering, University of Iowa, Iowa). Briefly, HBE were examined under voltage-clamp recording conditions (Vhold=0 mV) at 37° C. […]
# [3] = HLM/RLM stability, % remaining at 30 min; type: in vitro ADME
solubility [1] [µM],EC50 (Δ508/G551D-HBE) [nM],EC50 [2] [nM],EC50 (ΔF508-CFTR in HBE) [nM],Compound,IC50 (CaV 1.2) [nM],HLM/RLM (% remain. @ 30 min) [3]
87,< 2000,< 2000,< 2000,"CC(C)(C)c1cc(C(C)(C)CO)c(O)cc1NC(=O)c1c[nH]c2ccccc2c1=O [Compound 27, N-(2-tert-butyl-5-hydroxy-4-(1-hydroxy-2-methylpropan-2-yl)phenyl)-4-oxo-1,4-dihydroquinoline-3-carboxamide]",> 5000,++ (“++” if efficacy was calculated to be from 100% to 25%)
> 200,2000 to 5000,2000 to 5000,< 2000,"CC(C)(C)c1cc(C(C)(C)C(=O)O)c(O)cc1NC(=O)c1c[nH]c2ccccc2c1=O [Compound 28, 2-(5-tert-butyl-2-hydroxy-4-(4-oxo-1,4-dihydroquinoline-3-carboxamido)phenyl)-2-methylpropanoic acid]",,+++ (“+++” if efficacy was calculated to be greater than 100%)
